According to US20080233191A1, “USE OF RANOLAZINE FOR ELEVATED BRAIN-TYPE NATRIURETIC PEPTIDE” (priority 2007, published 2008):

System: patients with non-ST elevation ACS
Experiment: MERLIN-TIMI 36 trial: randomized, double-blind, placebo-controlled; effect of ranolazine stratified by baseline BNP
Assay type: in vivo, human
Details: ranolazine vs placebo
Excerpt: Ranolazine is believed to exert anti-ischemic effects through a reduction in myocardial cellular sodium and calcium overload with a consequent reduction in wall stress. B-type natriuretic peptide (BNP) is released in response to increased wall stress and is a potent indicator of risk in acute coronary syndromes (ACS). This study was a prospective evaluation of the interaction between BNP and the effect of ranolazine as part of a randomized, double-blind, placebo-controlled trial.
Plasma BNP were measured (ADVIA® BNP) at baseline (N=4543), 14 days (N=4079), and the Final Visit (N=3328) of the patients with non-ST elevation ACS randomized to ranolazine or placebo in the MERLIN-TIMI 36 trial. Patients were stratified using BNP>80 pg/mL based upon prior work with this assay. The primary endpoint of the trial was a composite of cardiovascular death, myocardial infarction, or recurrent ischemia (CVD/Ml/Rl).

COc1ccccc1OCC(O)CN1CCN(CC(=O)Nc2c(C)cccc2C)CC1 (racemic) [ranolazine, (±)-N-(2,6-dimethylphenyl)-4-[2-hydroxy-3-(2-methoxyphenoxy)propyl]-1-piperazine-acetamide]
endpoint component of worsening angina, HR (BNP>80 pg/mL, CI 0.35-0.84, p=0.005): 0.55
endpoint component of worsening angina, HR (BNP≦80 pg/mL, 95% CI 0.63-1.28, p=0.55): 0.90
primary endpoint (composite of cardiovascular death, myocardial infarction, or recurrent ischemia), HR (patients with BNP>80 pg/mL, 95% CI 0.66-0.94, p=0.009): 0.79
primary endpoint (composite of cardiovascular death, myocardial infarction, or recurrent ischemia), effect (patients with a negative BNP result, p-interaction=0.052): lack of detectable effect
